We go through 5 molecules from ChEMBL document CHEMBL1151229, “Isolation and structure of gustastatin from the Brazilian nut tree Gustavia hexapetala” (2004).

Converted amounts (≈) assume the structure as drawn.

A word on the GI50: it is the concentration giving 50% growth inhibition.

What all share (type): functional
The test system of one assay is P388. Nature of the assay: Cytotoxicity against mouse P388 cells.
A further assay deals with NCI-H460. Nature of the assay: Cytotoxicity against human NCI-H460 cells.
The next assay has as its system DU-145. Nature of the assay: Cytotoxicity against human DU145 cells.
A further assay relates to MCF7. Nature of the assay: Cytotoxicity against human MCF7 cells.
A further assay concerns BXPC-3. Nature of the assay: Cytotoxicity against human BxPC3 cells.
A further assay deals with SF-268. Nature of the assay: Cytotoxicity against human SF268 cells.
In a further assay the test system is KM-20L2. Nature of the assay: Cytotoxicity against human KM20L2 cells.

On to `CC1(C)C=Cc2cc3ccc(=O)oc3cc2O1` [XANTHYLETIN], for which the GI50 was above 10 µg/mL with P388; 9 µg/mL (≈ 39.4 µM) in the assay with NCI-H460; 2.9 µg/mL (≈ 12.7 µM) with DU-145; 5.9 µg/mL (≈ 25.8 µM) with MCF7; 5.5 µg/mL (≈ 24.1 µM) in the assay on BXPC-3; 11.2 µg/mL (≈ 49.1 µM) in the assay on SF-268. Besides, the 50% growth inhibitory concentration (GI50) in the assay with KM-20L2 is 6.3 µg/mL (≈ 27.6 µM).
With `COc1cc(C)c2c(=O)c3c(O)cc(OC)cc3oc2c1` [LICHEXANTHONE], the GI50 in the assay on P388 was above 10 µg/mL; in the assay with NCI-H460 it was 7.1 µg/mL (≈ 24.8 µM); with DU-145 it was 3.7 µg/mL (≈ 12.9 µM); in the assay on MCF7 it was 4.1 µg/mL (≈ 14.3 µM); in the assay on BXPC-3, 2.5 µg/mL (≈ 8.73 µM); with SF-268, 3 µg/mL (≈ 10.5 µM). Moreover, halving of growth in the assay with KM-20L2 (GI50) required 2 µg/mL (≈ 6.99 µM).
Consider `C=C(C)[C@@H]1CC[C@]2(C(=O)O)CC[C@]3(C)[C@H](CC[C@@H]4[C@@]5(C)CC[C@H](O)C(C)(C)[C@@H]5CC[C@]43C)[C@@H]12` [BETULINIC ACID], for which the GI50 in the assay with P388 is above 10 µg/mL; in the assay on NCI-H460, 4.7 µg/mL (≈ 10.3 µM); in the assay with DU-145, 5 µg/mL (≈ 10.9 µM); with MCF7, 1.1 µg/mL (≈ 2.41 µM); in the assay on BXPC-3, 0.85 µg/mL (≈ 1.86 µM); in the assay with SF-268 it was 0.86 µg/mL (≈ 1.88 µM). In addition, the concentration for 50% growth inhibition (GI50) in the assay with KM-20L2 was 3.4 µg/mL (≈ 7.44 µM).
Turning to `C[C@H]1[C@@H](O)[C@@H](C)[C@@]2(O[C@@H]1C)[C@@H](C)[C@H]1OC(=O)[C@]2(C)C(=O)[C@@H]1C` [PORTENTOL], the GI50 was above 10 µg/mL with P388; 4.7 µg/mL (≈ 15.1 µM) in the assay with NCI-H460; 1.3 µg/mL (≈ 4.19 µM) in the assay on DU-145; above 10 µg/mL with MCF7; 7 µg/mL (≈ 22.6 µM) in the assay with BXPC-3; 4.7 µg/mL (≈ 15.1 µM) in the assay on SF-268. The concentration for 50% growth inhibition (GI50) in the assay on KM-20L2 is above 10 µg/mL.
Take `CCCCCC(=O)Cc1cc(OC)cc(O)c1C(=O)Oc1cc(CC(=O)CCCCC)c(C(=O)OC)c(OC)c1` [GUSTASTATIN]: the GI50 is above 10 µg/mL in the assay on P388; 5.1 µg/mL (≈ 9.16 µM) in the assay with NCI-H460; 5.2 µg/mL (≈ 9.34 µM) in the assay on DU-145; 6.4 µg/mL (≈ 11.5 µM) with MCF7; above 10 µg/mL in the assay with BXPC-3; 7.9 µg/mL (≈ 14.2 µM) with SF-268. In addition, the GI50 with KM-20L2 is above 10 µg/mL.
